Literature values in patent US8709515B1, “Nutritional supplement method” (priority 2009, dated 2014).

Tests used:
albino rats = conditions: fed in the water to albino rats
rats = conditions: one eye with induced increase in intraocular pressure
[1] = tested on: selenite induced cataracts in rats

O=C(O)CCCCC1CCSS1 (stereo not drawn) [Alpha lipoic acid]
dose above which it may not be safe (cats): higher than 30 mg/day

O=C(O[C@@H]1Cc2c(O)cc(O)cc2O[C@@H]1c1cc(O)c(O)c(O)c1)c1cc(O)c(O)c(O)c1 [EGCG, Epigallocatechin gallate]
light-induced photoreceptor damage (albino rats): attenuated light-induced photoreceptor damage | retinal neuronal death (rats): attenuated retinal neuronal death | progression of cataract [1]: retards the progression of cataract
